Assay results published in patent US8937078B2, “Quinazolinones as prolyl hydroxylase inhibitors” (Janssen Pharmaceutica NV, priority 2009, dated 2015).
“Also recorded” adds a separate entry of the source. Blank lines part the entries; values can stand above or below the compound they belong to.

Experiments:
[1] = target: T1, human PHD2 (PHD2181-417) (Homo sapiens, UniProt Q9GZT9); experiment: PHD enzymatic assay ([14C]-succinic acid production); assay type: biochemical; conditions: PHD2181-417, HIF-1α peptide 10 μM, average of results; read-out: Enzyme pIC50 (converted)
T1 construct: Smt (SUMO) tag (cleaved yes); made in house; host or cells: E. coli BL21 (pBAD vector)
Procedure, shortened: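 Activity measured as [14C]-succinic acid formed from [5-14C]-2-oxoglutarate over 10 minutes, with peptide substrate at 10 μM, in Tris-HCl pH 7.5 buffer containing catalase, DTT and ascorbate. Unreacted oxoglutarate removed by DNP derivatisation; supernatant beta-counted.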

[2] = tested on: Hep-3B cells; experiment: Cellular assay: erythropoietin secretion in Hep-3B cells; assay type: cell-based, human; conditions: Homo sapiens, Hep3B, 100 μM compound, 24 hours, percent of EPO secretion relative to assay control compound 7-[(4-Chloro-phenyl)-(5-methyl-isoxazol-3-ylamino)-methyl]-quinolin-8-ol, read-out: Cellular % EPO Stimulation
Procedure, shortened: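 Hep-3B cells in DMEM with 10% FBS, treated 24 h after plating with compounds at 100 μM final for a further 24 h. Secreted EPO in supernatant measured by MSD electrochemiluminescence sandwich immunoassay with anti-EPO detection antibody.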

[3] = Canine study, histological analysis (single dose escalation then repeat dose); assay type: in vivo; parameters: key to Histology: Stomach / Histology: Testis/Epididymis / Histology: Bone Marrow / Histology: Lung / Histology: Heart / Histology: Test/Epididymis / Histology: Kidney: NSL: No Significant Lesion; conditions: oral by stomach tube
Method: Various animal models are assessed for histological analysis. In one example, a canine study was used to assess the effect of 1-[6-(2,6-dimethyl-phenoxy)-7-fluoro-4-oxo-3,4-dihydro-quinazolin-2-yl]-1H-pyrazole-4-carboxylic acid when administered orally by stomach tube in a Single Dose Escalation (SDE) phase, and then subsequently for up to 5 days during the Repeat Dose (RD) phase.

T1 sequence (Q9GZT9 181-417): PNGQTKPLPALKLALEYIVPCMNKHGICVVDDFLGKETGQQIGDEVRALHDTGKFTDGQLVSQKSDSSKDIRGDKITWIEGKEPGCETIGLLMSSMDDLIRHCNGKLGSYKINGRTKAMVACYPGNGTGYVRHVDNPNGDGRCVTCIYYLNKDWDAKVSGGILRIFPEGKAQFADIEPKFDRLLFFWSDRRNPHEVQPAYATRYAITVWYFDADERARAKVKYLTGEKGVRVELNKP

Structure (SMILES): Cc1cccc(C)c1Oc1cc2c(=O)[nH]c(-n3cc(C(=O)O)cn3)nc2cc1F [Example 51, 1-[6-(2,6-Dimethyl-phenoxy)-7-fluoro-4-oxo-3,4-dihydro-quinazolin-2-yl]-1H-pyrazole-4-carboxylic acid]
IC50 [1]: 0.0251 µM
Emax at 100 µM [2]: 100%
Histology: Bone Marrow ([3]; 10 mg/kg/day-1001 (Male)): NSL
Histology: Heart ([3]; 10 mg/kg/day-1001 (Male)): NSL
Histology: Kidney ([3]; 10 mg/kg/day-1001 (Male)): Slight, bilateral, acute multi-focal; also recorded: Slight, pelvic mineral deposition (right
Histology: Liver ([3]; 10 mg/kg/day-1001 (Male)): Slight, acute portal inflammation
Histology: Lung ([3]; 10 mg/kg/day-1001 (Male)): NSL
Histology: Spleen ([3]; 10 mg/kg/day-1001 (Male)): Mild EMH, with mild, increased; also recorded: Slight, intra-macrophage brown pigment
Histology: Stomach ([3]; 10 mg/kg/day-1001 (Male)): NSL
Histology: Testis/Epididymis ([3]; 10 mg/kg/day-1001 (Male)): NSL
Histology: Bone Marrow ([3]; 10 mg/kg/day-1501 (female)): NSL
Histology: Heart ([3]; 10 mg/kg/day-1501 (female)): NSL
Histology: Kidney ([3]; 10 mg/kg/day-1501 (female)): NSL
Histology: Liver ([3]; 10 mg/kg/day-1501 (female)): Slight, acute portal inflammation
Histology: Lung ([3]; 10 mg/kg/day-1501 (female)): NSL
Histology: Spleen ([3]; 10 mg/kg/day-1501 (female)): Mild EMH, with mild, increased; also recorded: Slight, intra-macrophage brown
Histology: Stomach ([3]; 10 mg/kg/day-1501 (female)): NSL
Histology: Bone Marrow ([3]; 45 mg/kg/day-2001 (Male)): BSL
Histology: Heart ([3]; 45 mg/kg/day-2001 (Male)): NSL
Histology: Kidney ([3]; 45 mg/kg/day-2001 (Male)): Slight, bilateral, acute multi-focal; also recorded: Multiple cysts with slight interstitial; also recorded: Slight, renal papillary mineralization
Histology: Liver ([3]; 45 mg/kg/day-2001 (Male)): Mild, acute central-lobular inflammation
Histology: Lung ([3]; 45 mg/kg/day-2001 (Male)): NSL
Histology: Spleen ([3]; 45 mg/kg/day-2001 (Male)): Mild EMH; also recorded: Mild, increased megkaryocytes; also recorded: Slight intra-macrophage brown pigment
Histology: Stomach ([3]; 45 mg/kg/day-2001 (Male)): NSL
Histology: Test/Epididymis ([3]; 45 mg/kg/day-2001 (Male)): NSL
Histology: Bone Marrow ([3]; 45 mg/kg/day-2501(female)): NSL
Histology: Kidney ([3]; 45 mg/kg/day-2501(female)): Slight, bilateral, acute-multi-focal; also recorded: Slight tubular vacuolization
Histology: Liver ([3]; 45 mg/kg/day-2501(female)): Mild bile duct hyperplasia; also recorded: Multifocal portal tract thrombosis; also recorded: Slight, Kupffer cell brown pigment
Histology: Lung ([3]; 45 mg/kg/day-2501(female)): NSL
Histology: Spleen ([3]; 45 mg/kg/day-2501(female)): Mild EMH; also recorded: Mild, increased megkaryocytes; also recorded: Slight intra-macrophage brown
Histology: Stomach ([3]; 45 mg/kg/day-2501(female)): NSL

Structure (SMILES): O=C(O)c1cnn(-c2nc3cc(-c4cccc(Cl)c4)ccc3c(=O)[nH]2)c1 [Example 186, 1-[7-(3-Chloro-phenyl)-4-oxo-3,4-dihydro-quinazolin-2-yl]-1H-pyrazole-4-carboxylic acid]
IC50 [1]: 0.0501 µM
Emax at 100 µM [2]: 26%

Structure (SMILES): O=C(O)c1cnn(-c2nc3cc(-c4ccc(Cl)cc4)ccc3c(=O)[nH]2)c1 [Example 187, 1-[7-(4-Chloro-phenyl)-4-oxo-3,4-dihydro-quinazolin-2-yl]-1H-pyrazole-4-carboxylic acid]
IC50 [1]: 0.0631 µM
Emax at 100 µM [2]: 24%

Structure (SMILES): Cc1cccc(-c2ccc3c(=O)[nH]c(-n4cc(C(=O)O)cn4)nc3c2)c1 [Example 189, 1-(4-Oxo-7-m-tolyl-3,4-dihydro-quinazolin-2-yl)-1H-pyrazole-4-carboxylic acid]
IC50 [1]: 0.0501 µM
Emax at 100 µM [2]: 25%

Structure (SMILES): Cc1cccc(-c2ccc3nc(-n4cc(C(=O)O)cn4)[nH]c(=O)c3c2)c1 [Example 190, 1-(4-Oxo-6-m-tolyl-3,4-dihydro-quinazolin-2-yl)-1H-pyrazole-4-carboxylic acid]
IC50 [1]: 0.0251 µM
Emax at 100 µM [2]: 91%

Structure (SMILES): Cc1ccc(-c2ccc3nc(-n4cc(C(=O)O)cn4)[nH]c(=O)c3c2)cc1 [Example 191, 1-(4-Oxo-6-p-tolyl-3,4-dihydro-quinazolin-2-yl)-1H-pyrazole-4-carboxylic acid]
IC50 [1]: 0.02 µM
Emax at 100 µM [2]: 31%

Structure (SMILES): COc1cccc(-c2ccc3nc(-n4cc(C(=O)O)cn4)[nH]c(=O)c3c2)c1 [Example 199, 1-[6-(3-Methoxy-phenyl)-4-oxo-3,4-dihydro-quinazolin-2-yl]-1H-pyrazole-4-carboxylic acid]
IC50 [1]: 0.0251 µM
Emax at 100 µM [2]: 119%

Structure (SMILES): COc1ccc(-c2ccc3nc(-n4cc(C(=O)O)cn4)[nH]c(=O)c3c2)cc1 [Example 200, 1-[6-(4-Methoxy-phenyl)-4-oxo-3,4-dihydro-quinazolin-2-yl]-1H-pyrazole-4-carboxylic acid]
IC50 [1]: 0.0158 µM
Emax at 100 µM [2]: 118%

Structure (SMILES): O=C(O)c1cnn(-c2nc3ccc(-c4cccc5c4OCCO5)cc3c(=O)[nH]2)c1 [Example 204, 1-[6-(2,3-Dihydro-benzo[1,4]dioxin-5-yl)-4-oxo-3,4-dihydro-quinazolin-2-yl]-1H-pyrazole-4-carboxylic acid]
IC50 [1]: 0.0158 µM
Emax at 100 µM [2]: 111%

Structure (SMILES): O=C(O)c1cnn(-c2nc3ccc(-c4cccc(OC(F)(F)F)c4)cc3c(=O)[nH]2)c1 [Example 205, 1-[4-Oxo-6-(3-trifluoromethoxy-phenyl)-3,4-dihydro-quinazolin-2-yl]-1H-pyrazole-4-carboxylic acid]
IC50 [1]: 0.0251 µM
Emax at 100 µM [2]: 58%

Structure (SMILES): CS(=O)(=O)c1cccc(-c2ccc3nc(-n4cc(C(=O)O)cn4)[nH]c(=O)c3c2)c1 [Example 206, 1-[6-(3-Methanesulfonyl-phenyl)-4-oxo-3,4-dihydro-quinazolin-2-yl]-1H-pyrazole-4-carboxylic acid]
IC50 [1]: 0.0251 µM
Emax at 100 µM [2]: 13%

Structure (SMILES): O=C(O)c1cnn(-c2nc3ccc(-c4ccc5c(c4)OCO5)cc3c(=O)[nH]2)c1 [Example 207, 1-(6-Benzo[1,3]dioxol-5-yl-4-oxo-3,4-dihydro-quinazolin-2-yl)-1H-pyrazole-4-carboxylic acid]
IC50 [1]: 0.0251 µM
Emax at 100 µM [2]: 84%

Structure (SMILES): O=C(O)c1cnn(-c2nc3cc(I)ccc3c(=O)[nH]2)c1 [Example 208, 1-(7-Iodo-4-oxo-3,4-dihydro-quinazolin-2-yl)-1H-pyrazole-4-carboxylic acid]
IC50 [1]: 0.126 µM
Emax at 100 µM [2]: 20%

The next lines start with results.

IC50 [1]: 0.1 µM
Structure (SMILES): O=C(O)c1cnn(-c2nc3cc(-c4ccccc4Cl)ccc3c(=O)[nH]2)c1 [Example 185, 1-[7-(2-Chloro-phenyl)-4-oxo-3,4-dihydro-quinazolin-2-yl]-1H-pyrazole-4-carboxylic acid]
Emax at 100 µM [2]: 15%

IC50 [1]: 0.0794 µM
Structure (SMILES): Cc1ccccc1-c1ccc2c(=O)[nH]c(-n3cc(C(=O)O)cn3)nc2c1 [Example 188, 1-(4-Oxo-7-o-tolyl-3,4-dihydro-quinazolin-2-yl)-1H-pyrazole-4-carboxylic acid]
Emax at 100 µM [2]: 11%

IC50 [1]: 0.0316 µM
Structure (SMILES): O=C(O)c1cnn(-c2nc3ccc(-c4ccccc4Cl)cc3c(=O)[nH]2)c1 [Example 192, 1-[6-(2-Chloro-phenyl)-4-oxo-3,4-dihydro-quinazolin-2-yl]-1H-pyrazole-4-carboxylic acid]
Emax at 100 µM [2]: 87%

IC50 [1]: 0.0316 µM
Structure (SMILES): O=C(O)c1cnn(-c2nc3ccc(-c4cccc(Cl)c4)cc3c(=O)[nH]2)c1 [Example 193, 1-[6-(3-Chloro-phenyl)-4-oxo-3,4-dihydro-quinazolin-2-yl]-1H-pyrazole-4-carboxylic acid]
Emax at 100 µM [2]: 141%

IC50 [1]: 0.02 µM
Structure (SMILES): O=C(O)c1cnn(-c2nc3ccc(-c4ccc(Cl)cc4)cc3c(=O)[nH]2)c1 [Example 194, 1-[6-(4-Chloro-phenyl)-4-oxo-3,4-dihydro-quinazolin-2-yl]-1H-pyrazole-4-carboxylic acid]
Emax at 100 µM [2]: 62%

IC50 [1]: 0.0251 µM
Structure (SMILES): O=C(O)c1cnn(-c2nc3ccc(-c4ccccc4F)cc3c(=O)[nH]2)c1 [Example 195, 1-[6-(2-Fluoro-phenyl)-4-oxo-3,4-dihydro-quinazolin-2-yl]-1H-pyrazole-4-carboxylic acid]
Emax at 100 µM [2]: 100%

IC50 [1]: 0.0398 µM
Structure (SMILES): O=C(O)c1cnn(-c2nc3ccc(-c4cccc(F)c4)cc3c(=O)[nH]2)c1 [Example 196, 1-[6-(3-Fluoro-phenyl)-4-oxo-3,4-dihydro-quinazolin-2-yl]-1H-pyrazole-4-carboxylic acid]
Emax at 100 µM [2]: 92%

IC50 [1]: 0.02 µM
Structure (SMILES): O=C(O)c1cnn(-c2nc3ccc(-c4ccc(F)cc4)cc3c(=O)[nH]2)c1 [Example 197, 1-[6-(4-Fluoro-phenyl)-4-oxo-3,4-dihydro-quinazolin-2-yl]-1H-pyrazole-4-carboxylic acid]
Emax at 100 µM [2]: 108%

IC50 [1]: 0.02 µM
Structure (SMILES): COc1ccccc1-c1ccc2nc(-n3cc(C(=O)O)cn3)[nH]c(=O)c2c1 [Example 198, 1-[6-(2-Methoxy-phenyl)-4-oxo-3,4-dihydro-quinazolin-2-yl]-1H-pyrazole-4-carboxylic acid]
Emax at 100 µM [2]: 178%

IC50 [1]: 0.0251 µM
Structure (SMILES): O=C(O)c1cnn(-c2nc3ccc(-c4ccccc4C(F)(F)F)cc3c(=O)[nH]2)c1 [Example 201, 1-[4-Oxo-6-(2-trifluoromethyl-phenyl)-3,4-dihydro-quinazolin-2-yl]-1H-pyrazole-4-carboxylic acid]
Emax at 100 µM [2]: 78%

IC50 [1]: 0.0158 µM
Structure (SMILES): O=C(O)c1cnn(-c2nc3ccc(-c4ccccc4OC(F)(F)F)cc3c(=O)[nH]2)c1 [Example 202, 1-[4-Oxo-6-(2-trifluoromethoxy-phenyl)-3,4-dihydro-quinazolin-2-yl]-1H-pyrazole-4-carboxylic acid]
Emax at 100 µM [2]: 29%

IC50 [1]: 0.0316 µM
Structure (SMILES): CCc1ccccc1-c1ccc2nc(-n3cc(C(=O)O)cn3)[nH]c(=O)c2c1 [Example 203, 1-[6-(2-Ethyl-phenyl)-4-oxo-3,4-dihydro-quinazolin-2-yl]-1H-pyrazole-4-carboxylic acid]
Emax at 100 µM [2]: 77%
